Test results reported in ChEMBL document CHEMBL1133011, “DNA binding, solubility, and partitioning characteristics of extended lexitropsins” (J Med Chem, 2000).

Legend:
[1] = Distribution coefficient of the compound at pH 7.4 (logD); conditions: octanol/water
[2] = Partition coefficient of the compound (logP); conditions: octanol/water
[3] = The ionization constant (pKa) for the compound

Row | SMILES | logD [1] | logP [2] | pKa [3]
1 | CN(C)CCCNC(=O)c1cc(NC(=O)c2cc(NC(=O)c3cc(NC(=O)c4cc(NC(=O)c5cc(NC(=O)c6cc(NC(=O)CCCN(C)C)cn6C)cn5C)cn4C)cn3C)cn2C)cn1C | 0.47 | 4.68 | 9.5
2 | CN(C)CCCNC(=O)c1cc(NC(=O)c2cc(NC(=O)CNC(=O)c3cccc(C(=O)NCC(=O)Nc4cc(C(=O)Nc5cc(C(=O)NCCCN(C)C)n(C)c5)n(C)c4)c3)cn2C)cn1C | -2.74 | 1.47 | 9.5
3 | CN(C)CCCNC(=O)c1cc(NC(=O)c2cc(NC(=O)c3cc(NC(=O)c4cc(NC(=O)c5cc(NC(=O)CCCN(C)C)cn5C)cn4C)cn3C)cn2C)cn1C | -0.32 | 3.89 | 9.5
4 | Cn1cc(NC(=O)c2cc(NC(=O)c3cc(NC=O)cn3C)cn2C)cc1C(=O)NCCC(=N)N [STALLIMYCIN] | -5.87 | -0.87 | 12.4
5 | CN(C)CCCNC(=O)c1cc(NC(=O)c2cc(NC(=O)/C=C/C(=O)Nc3cc(C(=O)Nc4cc(C(=O)NCCCN(C)C)n(C)c4)n(C)c3)cn2C)cn1C | -1.03 | 3.18 | 9.5
6 | CN(C)CCCNC(=O)c1cc(NC(=O)c2cc(NC(=O)c3cc(NC=O)cn3C)cn2C)cn1C | 0.07 | 2.17 | 9.5
